Reference: paper PMC11543753, “The Ortholog Receptor Or67d in Drosophila Bipectinata is able to Detect Two Different Pheromones” (Journal of Chemical Ecology, 2024)

Tests used:
[1] = tested on: T1, DbipOr67d (Drosophila bipectinata); experiment: single sensillum recording, spike rate of at1 neurons; type: cell-based; conditions: agonist; odor 10^-3 (v/v) in dichloromethane, 0.5 s puff; D. melanogaster at1 neurons expressing DbipOr67d; also tested in wild-type D. bipectinata at1
T1 construct: with Odorant receptor coreceptor (Drosophila melanogaster)

D. melanogaster Or67d = target: T2, D. melanogaster Or67d (Drosophila melanogaster, UniProt Q9VT92); experiment: as above; type: cell-based; conditions: agonist; odor 10^-3 (v/v) in dichloromethane, 0.5 s puff; native at1 neurons of wild-type CS flies
T2 construct: native receptor in at1 trichoid sensillum neurons of wild-type flies; with Odorant receptor coreceptor
T2 sequence (Q9VT92 1-391): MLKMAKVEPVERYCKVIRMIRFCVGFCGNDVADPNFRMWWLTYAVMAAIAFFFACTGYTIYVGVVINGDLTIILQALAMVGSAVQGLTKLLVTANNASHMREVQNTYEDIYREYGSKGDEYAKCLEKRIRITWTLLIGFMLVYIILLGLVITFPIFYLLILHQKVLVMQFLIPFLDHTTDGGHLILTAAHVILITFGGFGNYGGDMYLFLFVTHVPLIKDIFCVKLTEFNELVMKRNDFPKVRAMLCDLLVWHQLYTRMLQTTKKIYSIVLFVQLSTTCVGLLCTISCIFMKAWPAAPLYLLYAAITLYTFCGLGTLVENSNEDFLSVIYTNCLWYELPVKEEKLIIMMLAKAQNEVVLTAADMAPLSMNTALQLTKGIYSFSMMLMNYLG
T2 sequence (Q9VNB5 1-486 partner): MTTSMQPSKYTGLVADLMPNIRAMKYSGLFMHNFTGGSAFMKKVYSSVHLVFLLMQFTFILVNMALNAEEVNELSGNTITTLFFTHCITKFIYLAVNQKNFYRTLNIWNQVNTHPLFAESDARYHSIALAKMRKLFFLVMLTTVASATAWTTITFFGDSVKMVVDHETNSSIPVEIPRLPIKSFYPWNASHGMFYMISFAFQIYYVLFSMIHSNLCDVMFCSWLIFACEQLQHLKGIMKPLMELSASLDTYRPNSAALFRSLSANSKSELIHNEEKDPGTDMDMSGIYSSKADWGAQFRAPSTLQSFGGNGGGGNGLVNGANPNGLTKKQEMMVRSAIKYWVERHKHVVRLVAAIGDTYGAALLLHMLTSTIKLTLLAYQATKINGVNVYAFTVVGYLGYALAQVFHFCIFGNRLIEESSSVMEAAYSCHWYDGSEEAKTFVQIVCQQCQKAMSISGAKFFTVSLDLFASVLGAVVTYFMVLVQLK

SMILES	single sensillum recording, spike rate of at1 neurons [1]	single sensillum recording, spike rate of at1 neurons (D. melanogaster Or67d)
CCCCCCCC/C=C\CCCCCCCCCCOC(C)=O [Z11-20:Ac, (Z)-11-eicosen-1-yl acetate]	Drosophila melanogaster OSNs ectopically expressing D.bipOr67d respond to cVA and Z11-20:Ac.	
CCCCCC/C=C\CCCCCCCCCCOC(C)=O [cVA, (Z)-11-octadecen-1-yl acetate]	Drosophila melanogaster OSNs ectopically expressing D.bipOr67d respond to cVA and Z11-20:Ac.	D. melanogaster CS flies exhibited significant responses only to cVA (Fig. 1c)
